{"source": "BindingDB's records for doi:10.1021/jm060199b", "about": "(Abbott Laboratories, 2006)", "biological_target": "Mitogen-activated protein kinase 8 (Homo sapiens, UniProt P45983)", "sequence (P45983 whole entry)": "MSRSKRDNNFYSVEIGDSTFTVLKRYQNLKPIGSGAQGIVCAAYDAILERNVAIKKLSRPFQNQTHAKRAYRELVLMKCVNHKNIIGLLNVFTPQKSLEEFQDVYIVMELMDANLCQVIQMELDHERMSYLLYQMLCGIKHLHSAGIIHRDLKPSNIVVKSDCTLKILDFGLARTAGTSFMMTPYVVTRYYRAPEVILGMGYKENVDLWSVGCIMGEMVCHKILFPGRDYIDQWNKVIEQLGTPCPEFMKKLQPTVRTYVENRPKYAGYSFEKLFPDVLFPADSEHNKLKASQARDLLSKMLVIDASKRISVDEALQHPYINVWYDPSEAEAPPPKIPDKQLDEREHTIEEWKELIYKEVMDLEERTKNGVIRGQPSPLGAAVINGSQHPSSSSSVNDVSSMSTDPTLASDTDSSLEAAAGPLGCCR", "experiment": "ATF-2 Phosphorylation Assay", "data": [{"molecule": "CCOc1cccc(NC(C)=O)n1", "note": "[N-(6-ethoxypyridin-2-yl)acetamide]", "values": [{"measurement": "IC50", "result": "> 10", "unit": "µM"}]}]}
